Data set [1] concerns zebrafish embryos. The class given is in vivo. The settings on record: for Death number (72 h): n = 30; for Body length (72 h) / Hatching number (72 h) / Heartbeat (72 h) / Unhatching number (72 h) / hatching rate: zebrafish, in vivo. As to the method:
By the same method described above, zebrafish fertilized eggs were cultured. 7 Groups were set for each test compound, including 5 experimental groups relating to the test compound at different concentrations (solutions containing the test compound at different concentrations were prepared by using zebrafish embryo culture medium, wherein the concentrations were 100 mg/L, 10 mg/L, 1 mg/L, 0.1 mg/L, 0.01 mg/L), 1 solvent control group (DMSO) and 1 blank control group. The fertilized eggs were placed and cultured in a 28.5° C. incubator, a certain humidity was ensured in the culture environment. Culture medium containing a test compound was prepared, and the culture medium was added to a 96-well plate in advance, and each fertilized egg (by reference to the experimental method in OECD No. 212 document, fertilized eggs, which developed normally within 24 h after fertilization, were selected and subjected to exposure. Transparent fish eggs visible to naked eye were normally fertilized, while white fish eggs were dead and discarded. After the selection, the normally fertilized eggs had begun to divide as observed under microscope) was then independently placed in a different well, and cultured in the culture medium containing a test compound at a different concentration. Embryo development status at different stages were observed and photographed with invert microscope, including:
I. Morphological observation: the developmental states of fertilized eggs (yolk being coagulated or not, eye spot, pericardial sac being edematous or not, bloodstream being existing or not, tail development status, and the like) were observed and photographed at 48 h, 72 h, and 96 h;
II. Hatching number and death number were counted at 72 h after fertilization, and hatching rate and mortality were calculated;
III. Body length of the hatched young fishes at 72 h was measured (measured after photographing with invert microscope); […]
(§1) V. Heartbeat of young fishes (times/min) was recorded at 72 h and 96 h after fertilization (Recording method: heartbeat of young fishes could be clearly observed under microscope, and the number of heartbeats was recorded for 30 s).

In data set [2] the test system is zebrafish embryos. The data set is classed as in vivo. The settings on record: for Death number (72 h) / Hatching number (72 h) / Unhatching number (72 h): n = 30. As to the method:
Fertilized eggs (donated by Zebrafish Research Group, School of Life Sciences, Xiamen University) were incubated in freshly prepared zebrafish embryo culture medium, which was replaced by fresh culture medium every day, and cultured in 28.5° C. incubator. Pure water was placed in the incubator to ensure a certain humidity in the culture environment. The formulation for zebrafish embryo culture medium was following: 5 mM NaCl, 0.17 mM KCl, 0.33 mM CaCl2, 0.33 mM MgSO4, 10-5% methylene blue. The culture medium was prepared with pure water. For example, NaCl: 292.2 mg, KCl: 12.68 mg, CaCl2: 36.63 mg, MgSO4: 39.72 mg, and methylene blue: 0.1 μL were needed for the preparation of 1 L culture medium.
7 Groups were set for each test compound, including 5 experimental groups relating to the test compound at different concentrations (solutions containing the test compound at different concentrations were prepared by using zebrafish embryo culture medium, wherein the concentrations were 10 mg/L, 3 mg/L, 1 mg/L, 0.3 mg/L, 0.1 mg/L), 1 solvent control group (DMSO) and 1 blank control group. The positive control drug was OTC analgesic ibuprofen at concentrations as described above. A 96-well cell culture plate was used to perform the experiment, three wells in parallel were used for each experimental group, and 10 fish eggs were contained in each well.
Culture medium containing a test compound was prepared, and the culture medium was added to a 96-well plate in advance, and each fertilized egg (by reference to the experimental method in OECD No. 212 document, fertilized eggs, which developed normally within 2 h after fertilization, were selected and subjected to exposure. Transparent fish eggs visible to naked eye were normally fertilized, while white fish eggs were dead and discarded. After the selection, the normally fertilized eggs had begun to divide as observed under microscope) was then independently placed in a different well, and cultured in the culture medium containing a test compound at a different concentration. Embryo development status at different stages was observed and photographed with invert microscope, including: […]
II. Hatching number and death number were counted at 72 h after fertilization, and hatching rate and mortality were calculated; […]
as §1

In data set [3] the test system is adjuvant-induced arthritis rat models. Briefly: Adjuvant-induced osteoarthritis pain, foot swelling degree. The class given is in vivo, rats. The settings on record: X ± S, n = 10, 10 mg/Kg. As to the method: Typical model for studying inflammatory pain medically was used to evaluate the therapeutic effects of compounds on inflammatory pain. 0.1 mL Freund's complete adjuvant was intradermally injected to toe of the left hind foot of the rats in each group to obtain adjuvant-induced arthritis rat models. Foot volume method was used to measure primary and secondary foot swelling degree (swelling degree=volume after inflammation−volume before inflammation), and polyarticular arthritis were scored (5 scoring grades: 0 represents no red swelling; 4 represents red swelling at all the paws including anklebone. The scores are accumulated according to the lesion degree of the rest three limbs not injected with adjuvant, and the highest score is 12). Before inflammation and at 6 h, 12 h, 18 h and 24 h after inflammation, Paw Volume Meter was used to measure the foot volume at the inflammatory side, and the swelling degree was calculated. The model can represent inflammatory pain including, but not only limited to: osteoarthritis pain and fibromyalgia syndrome, inflammatory pain of rheumatic and rheumatoid arthritis, inflammatory pain of endometriosis, inflammatory toothache, ankylosing spondylitis pain, and gouty arthritis pain.

In the next data set the test system is SNI neuropathic pain. Briefly: Neuropathic pain mouse model induced by spared nerve injury (SNI). The data set is classed as in vivo, C57BL/6 mice. The settings on record: SNI mice, 10 mg/kg i.p. (gabapentin 100 mg/kg), 4 h after administration. As to the method: In the Experimental example, compounds to be evaluated or compounds to be tested or test compounds used are the Compounds 1-46 prepared in the Examples according to the invention. In the Experimental example, all the agents for injection, including compounds to be evaluated or compounds to be tested or test compounds, and positive control drug, were dissolved in a mixed solvent of PEG400:Tween 80:normal saline (at a volume ratio of 5:5:90), at a concentration of 5 mg/mL.
Neuropathic pain mouse model induced by spared nerve injury (SNI) is a common animal model for studying neuropathic pain medically. The invention uses the model to evaluate the therapeutic effects of the compounds on neuropathic pain, wherein the model can represent peripheral neuropathic pain including, but not limited to post-herpetic neuralgia, pain caused by diabetic perineuropathy, neurothlipsis and exudation caused by tumor, lumbar surgery failure syndrome, neuropathic pain caused by lumbar disc protrusion, postpartum neuralgia, trigeminal neuralgia, chemotherapy-induced multiple neuropathic pain, post-radiotherapy plexopathy, and radicular neuralgia.
C57BL/6 mice (purchased from Shanghai SLAC Laboratory Animal Co., Ltd) were anesthetized by intraperitoneal injection with pentobarbital sodium (40 mg/kg), and skin from knee joint to gluteal region was subjected to skin preparation and disinfection. After the mice were fixed, the knee joint part was cut about 1 cm longitudinally with bistoury, and muscle tissues were separated by blunt dissection to expose sciatic nerve. The tibial and common peroneal nerve branches of sciatic nerve stem were cut off carefully, and the cut was then stitched up. The mice was placed in a clean observation cage. In the sham-operation group, only sciatic nerve was exposed without cutting the tibial and common peroneal nerve branches. From the day before the experiment to 24 h after the operation, the plantar edges of the mice were stimulated everyday by […] (Ugo Basile Company (Italy), Product ID: 37450), and data was collected automatically to obtain the threshold value of mice to mechanical stimulation. […] The positive control drug gabapentin was administered at a dose of 100 mg/kg. All the agents to be injected were dissolved in a mixed solvent of PEG400:Tween 80:normal saline (at a volume ratio of 5:5:90), at a concentration of 5 mg/mL. By comparing the threshold values (the acting force of when the mouse retracting the paw) at different administration time in different administration groups, the compound was evaluated for its analgesic effect on neuropathic pain.

The structures appear in SMILES notation. Read-outs that look alike come from different tables or passages of the source. Marks after values point to notes of the source that are not given here.

The values below come from US10174015B2, “Substituted heterocyclic derivative, preparation method and use thereof” (Xiamen University, priority 2014, dated 2019).

The term mortality denotes the share of the test organisms that died. Read a low mortality as more survivors. Turning to `CC(C)Cc1ccc(C(C)C(=O)O)cc1` (centres unmarked) [ibuprofen, reference compound], the “Death number (72 h)” value worked out at 0 in the data set with zebrafish embryos [1] (0.01 mg/L); 0 with zebrafish embryos [1] (0.1 mg/L); 2 in the data set with zebrafish embryos [1] (1 mg/L); 30 in the data set on zebrafish embryos [1] (10 mg/L); 30 in the data set on zebrafish embryos [1] (100 mg/L); 8 with zebrafish embryos [2] (0.1 mg/L). The “Death number (72 h)” value amounted to 8 in the data set on zebrafish embryos [2] (0.3 mg/L), 13 in the data set on zebrafish embryos [2] (1 mg/L), 28 in the data set on zebrafish embryos [2] (3 mg/L) and 30 with zebrafish embryos [2] (10 mg/L). In addition, the mortality in the data set with zebrafish embryos [1] (10 mg/L, 72 h) was 100%. Besides, in the data set with zebrafish embryos [1] (100 mg/L, 48 h), the “observation of zebrafish embryo development” value was “all the zebrafish embryos died”. In addition, the “Body length (72 h)” value was determined as 3.97 ± 0.06 mm in the data set with zebrafish embryos [1] (72 h, 0.01 mg/L); 3.88 ± 0.15 mm in the data set on zebrafish embryos [1] (72 h, 0.1 mg/L); 3.97 ± 0.08 mm in the data set on zebrafish embryos [1] (72 h, 1 mg/L); 3.94 ± 0.14 mm in the data set on zebrafish embryos [2] (0.1 mg/L); 3.95 ± 0.09 mm in the data set on zebrafish embryos [2] (0.3 mg/L); 3.77 ± 0.18 mm in the data set on zebrafish embryos [2] (1 mg/L). The “Hatching number (72 h)” value with zebrafish embryos [1] (72 h, 0.01 mg/L) is 25; in the data set with zebrafish embryos [1] (72 h, 0.1 mg/L), 22; in the data set on zebrafish embryos [1] (72 h, 1 mg/L), 17; in the data set on zebrafish embryos [1] (72 h, 10 mg/L), 0; with zebrafish embryos [1] (72 h, 100 mg/L), 0; in the data set with zebrafish embryos [2] (0.1 mg/L), 22. The “Hatching number (72 h)” value is 20 with zebrafish embryos [2] (0.3 mg/L), 17 in the data set on zebrafish embryos [2] (1 mg/L), 0 in the data set on zebrafish embryos [2] (3 mg/L) and 0 in the data set on zebrafish embryos [2] (10 mg/L). Also, the “Heartbeat (72 h)” value was found to be 125 ± 2.16 per min with zebrafish embryos [1] (72 h, 0.01 mg/L); 124 ± 2.25 per min in the data set with zebrafish embryos [1] (72 h, 0.1 mg/L); 124 ± 1.67 per min in the data set with zebrafish embryos [1] (72 h, 1 mg/L); 125 ± 2.40 per min in the data set with zebrafish embryos [2] (0.1 mg/L); 125 ± 2.48 per min in the data set on zebrafish embryos [2] (0.3 mg/L); 126 ± 2.56 per min in the data set on zebrafish embryos [2] (1 mg/L). Further, the “Unhatching number (72 h)” value with zebrafish embryos [1] (72 h, 0.01 mg/L) stood at 5; with zebrafish embryos [1] (72 h, 0.1 mg/L), 8; in the data set with zebrafish embryos [1] (72 h, 1 mg/L) it was 11; in the data set with zebrafish embryos [1] (72 h, 10 mg/L), 0; in the data set on zebrafish embryos [1] (72 h, 100 mg/L), 0; with zebrafish embryos [2] (0.1 mg/L), 0. Further, the “Unhatching number (72 h)” value was determined as 2 in the data set on zebrafish embryos [2] (0.3 mg/L), 0 in the data set with zebrafish embryos [2] (1 mg/L), 2 in the data set on zebrafish embryos [2] (3 mg/L) and 0 in the data set with zebrafish embryos [2] (10 mg/L). Moreover, the hatching rate with zebrafish embryos [1] (72 h, 1 mg/L) stood at 56.7%; in the data set on zebrafish embryos [1] (72 h, 10 mg/L), 0%; in the data set with zebrafish embryos [2] (1 mg/L, 72 h), 56.67%.

Consider `COc1ccc2c(c1)c(CC(=O)O)c(C)n2C(=O)c1ccc(Cl)cc1` [indometacin, reference compound], for which the “Foot swelling degree after inflammation” value in data set [3] (6 h) is reported as 0.57 ± 0.16^c mL; in data set [3] (12 h) it was 0.96 ± 0.21^c mL; in data set [3] (18 h), 1.32 ± 0.22^b mL; in data set [3] (24 h), 1.08 ± 0.26^c mL.

With `O=C(Cc1cccc(-c2ccccc2)c1)N1CCOC1=O` [Compound 14, 3-Biphenylacetyl Oxazolidinone], the “Foot swelling degree after inflammation” value in data set [3] (6 h) was 0.75 ± 0.11^c mL; in data set [3] (12 h), 1.06 ± 0.19^c mL; in data set [3] (18 h), 1.43 ± 0.25^b mL; in data set [3] (24 h) it was 1.36 ± 0.18^b mL.

With `NCC1(CC(=O)O)CCCCC1` [gabapentin, reference compound], in the data set with SNI neuropathic pain, the “effect of inhibiting central neuropathic pain” value was “disappeared gradually”.
